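1) Cells in 96-well plates. 2) Compound, 48 h, 5 concentrations. 3) Linear interpolation between surrounding doses. 4) Unreached endpoint = highest concentration. The concentration for 50% growth inhibition is given as GI50.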 The source made the active and inactive calls. Rule as the data show it: active = GI50 up to about 1.1 µM and inactive = higher.
Tests used:
Assay in all cases: NCI anticancer screen, dose series, 48 h
NCI-H226 = tested on: NCI-H226
HOP-92 = tested on: HOP-92
HCT-116 = tested on: HCT-116
DMS-114 = tested on: DMS-114
SN12C = tested on: SN12C
SW-620 = tested on: SW-620
HOP-18 = tested on: HOP-18
OVCAR-3 = tested on: OVCAR-3
SK-MEL-2 = tested on: SK-MEL-2
NCI-H522 = tested on: NCI-H522
HCC 2998 = tested on: HCC 2998
UO-31 = tested on: UO-31
UACC-62 = tested on: UACC-62
SK-MEL-5 = tested on: SK-MEL-5
OVCAR-8 = tested on: OVCAR-8
CCRF-CEM = tested on: CCRF-CEM
K562 = tested on: K562
ACHN = tested on: ACHN
DMS-273 = tested on: DMS-273
SNB-78 = tested on: SNB-78
NCI-H23 = tested on: NCI-H23
MOLT-4 = tested on: MOLT-4
A549 = tested on: A549
M14 = tested on: M14
LXFL 529 = tested on: LXFL 529
Malme-3M = tested on: Malme-3M
786-0 = tested on: 786-0
DLD-1 = tested on: DLD-1
HL-60 = tested on: HL-60
HCT-15 = tested on: HCT-15
RXF 393 = tested on: RXF 393
OVCAR-4 = tested on: OVCAR-4
U-251 = tested on: U-251
RPMI-8226 = tested on: RPMI-8226
KM-20L2 = tested on: KM-20L2
IGROV-1 = tested on: IGROV-1
SNB-19 = tested on: SNB-19
OVCAR-5 = tested on: OVCAR-5
SF-268 = tested on: SF-268
KM12 = tested on: KM12
NCI-H460 = tested on: NCI-H460
HOP-62 = tested on: HOP-62
HT-29 = tested on: HT-29
LOX IMVI = tested on: LOX IMVI
COLO 205 = tested on: COLO 205
SNB-75 = tested on: SNB-75
SK-MEL-28 = tested on: SK-MEL-28
SK-OV-3 = tested on: SK-OV-3
TK-10 = tested on: TK-10
SF-539 = tested on: SF-539
EKVX = tested on: EKVX
UACC-257 = tested on: UACC-257
CAKI-1 = tested on: CAKI-1
A498 = tested on: A498
M19-MEL = tested on: M19-MEL
SF-295 = tested on: SF-295
SR = tested on: SR

For `COc1cccc(NC(=O)/C(CS(=O)(=O)CCC(C(C)=O)C(C)=O)=N/NC(C)(C)C)c1`, the GI50 (NCI-H226) was > 100 µM (inactive), the GI50 (HOP-92) was > 100 µM (inactive) and the GI50 (HCT-116) was > 100 µM (inactive). The GI50 (DMS-114) was > 100 µM (inactive), the GI50 (SN12C) was > 100 µM (inactive) and the GI50 (SW-620) was > 100 µM (inactive). For the same compound, the GI50 (HOP-18) was 42.9 µM (inactive), the GI50 (OVCAR-3) was > 100 µM (inactive) and the GI50 (SK-MEL-2) was > 100 µM (inactive). For the same compound, the GI50 (NCI-H522) was > 100 µM (inactive), the GI50 (HCC 2998) was > 100 µM (inactive) and the GI50 (UO-31) was > 100 µM (inactive). For the same compound, the GI50 (UACC-62) was > 100 µM (inactive), the GI50 (SK-MEL-5) was > 100 µM (inactive) and the GI50 (OVCAR-8) was > 100 µM (inactive). The GI50 (CCRF-CEM) was > 100 µM (inactive), the GI50 (K562) was > 100 µM (inactive) and the GI50 (ACHN) was > 100 µM (inactive). For the same compound, the GI50 (DMS-273) was > 100 µM (inactive), the GI50 (SNB-78) was > 100 µM (inactive) and the GI50 (NCI-H23) was > 100 µM (inactive). For the same compound, the GI50 (MOLT-4) was > 100 µM (inactive), the GI50 (A549) was > 100 µM (inactive) and the GI50 (M14) was > 100 µM (inactive). The GI50 (LXFL 529) was > 100 µM (inactive), the GI50 (Malme-3M) was > 100 µM (inactive) and the GI50 (786-0) was > 100 µM (inactive). The GI50 (DLD-1) was > 100 µM (inactive), the GI50 (HL-60) was > 100 µM (inactive) and the GI50 (HCT-15) was > 100 µM. For the same compound, the GI50 (RXF 393) was > 100 µM (inactive), the GI50 (OVCAR-4) was > 100 µM (inactive) and the GI50 (U-251) was > 100 µM (inactive). The GI50 (RPMI-8226) was > 100 µM (inactive), the GI50 (KM-20L2) was > 100 µM (inactive) and the GI50 (IGROV-1) was > 100 µM (inactive). The GI50 (SNB-19) was > 100 µM (inactive), the GI50 (OVCAR-5) was > 100 µM (inactive) and the GI50 (SF-268) was > 100 µM (inactive). The GI50 (KM12) was > 100 µM (inactive), the GI50 (NCI-H460) was > 100 µM (inactive) and the GI50 (HOP-62) was > 100 µM (inactive). For the same compound, the GI50 (HT-29) was > 100 µM (inactive), the GI50 (LOX IMVI) was > 100 µM (inactive) and the GI50 (COLO 205) was > 100 µM (inactive). The GI50 (SNB-75) was > 100 µM (inactive), the GI50 (SK-MEL-28) was > 100 µM (inactive) and the GI50 (SK-OV-3) was > 100 µM (inactive). For the same compound, the GI50 (TK-10) was > 100 µM (inactive), the GI50 (SF-539) was > 100 µM (inactive) and the GI50 (EKVX) was > 100 µM (inactive). For the same compound, the GI50 (UACC-257) was > 100 µM (inactive), the GI50 (CAKI-1) was > 100 µM (inactive) and the GI50 (A498) was > 100 µM (inactive).
In the case of `Nc1c(C(=O)N/N=C/c2ccc(Cl)cc2)sc(=S)n1-c1ccccc1`, the GI50 (NCI-H226) was > 100 µM (inactive), the GI50 (HOP-92) was > 100 µM (inactive) and the GI50 (HCT-116) was > 100 µM (inactive). The GI50 (M19-MEL) was > 100 µM (inactive), the GI50 (SW-620) was > 100 µM (inactive) and the GI50 (HOP-18) was > 100 µM (inactive). For the same compound, the GI50 (OVCAR-3) was > 100 µM (inactive), the GI50 (NCI-H522) was 31.6 µM (inactive) and the GI50 (HCC 2998) was > 100 µM (inactive). For the same compound, the GI50 (UO-31) was > 100 µM (inactive), the GI50 (UACC-62) was > 100 µM (inactive) and the GI50 (SK-MEL-5) was 58.2 µM (inactive). For the same compound, the GI50 (OVCAR-8) was > 100 µM (inactive), the GI50 (CCRF-CEM) was 22.3 µM (inactive) and the GI50 (K562) was 4.09 µM (inactive). For the same compound, the GI50 (ACHN) was > 100 µM (inactive), the GI50 (NCI-H23) was > 100 µM (inactive) and the GI50 (A549) was > 100 µM (inactive). For the same compound, the GI50 (LXFL 529) was > 100 µM (inactive), the GI50 (DLD-1) was > 100 µM (inactive) and the GI50 (HL-60) was > 100 µM (inactive). For the same compound, the GI50 (U-251) was > 10 µM (inactive), the GI50 (IGROV-1) was > 100 µM (inactive) and the GI50 (SNB-19) was > 100 µM (inactive). For the same compound, the GI50 (OVCAR-5) was > 100 µM (inactive), the GI50 (SF-268) was 40.8 µM (inactive) and the GI50 (KM12) was > 100 µM (inactive). For the same compound, the GI50 (NCI-H460) was 89.1 µM (inactive), the GI50 (HOP-62) was > 100 µM (inactive) and the GI50 (HT-29) was > 100 µM (inactive). The GI50 (COLO 205) was > 100 µM (inactive), the GI50 (SNB-75) was 84.7 µM (inactive) and the GI50 (SK-MEL-28) was 41.9 µM (inactive). For the same compound, the GI50 (SK-OV-3) was > 100 µM (inactive), the GI50 (TK-10) was > 100 µM (inactive) and the GI50 (SF-539) was 62.8 µM (inactive). For the same compound, the GI50 (UACC-257) was > 100 µM (inactive), the GI50 (SF-295) was > 100 µM (inactive) and the GI50 (A498) was > 100 µM (inactive).
With `CCN(CC)CCC(=O)c1ccccc1` the GI50 (NCI-H226) was > 100 µM (inactive), the GI50 (HOP-92) was 13.1 µM (inactive) and the GI50 (HCT-116) was 17.3 µM (inactive). The GI50 (DMS-114) was 20.3 µM (inactive), the GI50 (SN12C) was 19.3 µM (inactive) and the GI50 (M19-MEL) was 25.6 µM (inactive). The GI50 (SW-620) was 19.6 µM (inactive), the GI50 (HOP-18) was 15.3 µM (inactive) and the GI50 (OVCAR-3) was 18.6 µM (inactive). For the same compound, the GI50 (SK-MEL-2) was > 100 µM (inactive), the GI50 (HCC 2998) was 56 µM (inactive) and the GI50 (UO-31) was 31.3 µM (inactive). The GI50 (UACC-62) was > 10 µM (inactive), the GI50 (SK-MEL-5) was 91 µM (inactive) and the GI50 (OVCAR-8) was 24.2 µM (inactive). For the same compound, the GI50 (CCRF-CEM) was 6.21 µM (inactive), the GI50 (K562) was 7.45 µM (inactive) and the GI50 (ACHN) was 16.2 µM (inactive). The GI50 (DMS-273) was 18.5 µM (inactive), the GI50 (NCI-H23) was 19.1 µM (inactive) and the GI50 (MOLT-4) was 19.2 µM (inactive). For the same compound, the GI50 (A549) was > 100 µM (inactive), the GI50 (M14) was 16.8 µM (inactive) and the GI50 (SR) was 14 µM (inactive). For the same compound, the GI50 (LXFL 529) was 17.8 µM (inactive), the GI50 (HL-60) was 12.6 µM (inactive) and the GI50 (HCT-15) was 20.1 µM. The GI50 (RXF 393) was 20.4 µM (inactive), the GI50 (OVCAR-4) was 20.5 µM (inactive) and the GI50 (U-251) was 23.3 µM (inactive). The GI50 (RPMI-8226) was 2.85 µM (inactive), the GI50 (KM-20L2) was 21.5 µM (inactive) and the GI50 (IGROV-1) was > 100 µM (inactive). The GI50 (SNB-19) was > 100 µM (inactive), the GI50 (OVCAR-5) was 21.5 µM (inactive) and the GI50 (SF-268) was 17.8 µM (inactive). For the same compound, the GI50 (KM12) was 43.4 µM (inactive), the GI50 (NCI-H460) was 30.8 µM (inactive) and the GI50 (HOP-62) was > 100 µM (inactive). The GI50 (HT-29) was 28.2 µM (inactive), the GI50 (LOX IMVI) was 19.4 µM (inactive) and the GI50 (COLO 205) was > 10 µM (inactive). For the same compound, the GI50 (SNB-75) was 12.5 µM (inactive), the GI50 (SK-MEL-28) was 16.9 µM (inactive) and the GI50 (TK-10) was 21.3 µM (inactive). For the same compound, the GI50 (SF-539) was 24.8 µM (inactive), the GI50 (EKVX) was 60 µM (inactive) and the GI50 (UACC-257) was 24.2 µM (inactive).

From ChEMBL document CHEMBL1201862, “PubChem BioAssay data set” (2004)
